The test addresses human orexin-2 receptor (Homo sapiens (Human), UniProt O43614). As to the kind of experiment: FLIPR Ca2+ Flux Assay, orexin-2 receptor antagonism in CHO cells. The class given is cell-based. The conditions noted are these: CHO cells expressing the human orexin-2 receptor; agonist 70 pM Ala-6,12 orexin-A; read-out: hOX2 FLIPR IC50. How it is done:
The utility of the compounds in accordance with the present invention as orexin receptor OX1R and/or OX2R antagonists may be readily determined without undue experimentation by methodology well known in the art, including the “FLIPR Ca^2+ Flux Assay” (Okumura et al., Biochem. Biophys. Res. Comm. 280:976-981, 2001). In a typical experiment the OX1 and OX2 receptor antagonistic activity of the compounds of the present invention was determined in accordance with the following experimental method. For intracellular calcium measurements, Chinese hamster ovary (CHO) cells expressing the rat orexin-1 receptor or the human orexin-2 receptor, are grown in Iscove's modified DMEM containing 2 mM L-glutamine, […], 1% hypoxanthine-thymidine supplement, 100 U/ml penicillin, 100 μg/ml streptomycin and 10% heat-inactivated fetal calf serum (FCS). The cells are seeded at 20,000 cells/well into Becton-Dickinson black 384-well clear bottom sterile plates coated with poly-D-lysine. All reagents are from GIBCO-Invitrogen Corp. The seeded plates are incubated overnight at 37° C. and 5% CO2. Ala-6,12 human orexin-A as the agonist is prepared as a 1 mM stock solution in 1% bovine serum albumin (BSA) and diluted in assay buffer (HBSS containing 20 mM HEPES, 0.1% BSA and 2.5 mM probenecid, pH7.4) for use in the assay at a final concentration of 70 pM. Test compounds are prepared as 10 mM stock solution in DMSO, then diluted in 384-well plates, first in DMSO, then assay buffer. On the day of the assay, cells are washed 3 times with 100 μl assay buffer and then incubated for 60 min (37° C., 5% CO2) in 60 μl assay buffer containing […] Fluo-4AM ester, 0.02% pluronic acid, and 1% BSA. The dye loading solution is then aspirated and cells are washed 3 times with 100 μl assay buffer. 30 μl of that same buffer is left in each well. Within the Fluorescent Imaging Plate Reader (FLIPR, Molecular Devices), test compounds are added to the plate in a volume of 25 μl, incubated for 5 min and finally 25 μl of agonist is added. Fluorescence is measured for each well at 1 second intervals for 5 minutes and the height of each fluorescence peak is compared to the height of the fluorescence peak induced by 70 pM Ala-6,12 orexin-A with buffer in place of antagonist. For each antagonist, IC50 value (the concentration of compound needed to inhibit 50% of the agonist response) is determined. Alternatively, compound potency can be assessed by a radioligand binding assay (described in Bergman et. al. Bioorg. Med. Chem. Lett. 2008, 18, 1425-1430) in which the inhibition constant (Ki) is determined in membranes prepared from CHO cells expressing either the OX1 or OX2 receptor. The intrinsic orexin receptor antagonist activity of a compound which may be used in the present invention may be determined by these assays.
On the technique in general: Calcium assays in cells follow changes in intracellular calcium, usually with a dye or a luminescent sensor.

The results in this text go back to patent US10526336B2, “Fused heteroaryl derivatives as orexin receptor antagonists” (Merck Sharp & Dohme Corp., priority 2014, dated 2020).

The structures appear in SMILES notation.

Sequence of human orexin-2 receptor (O43614 whole entry): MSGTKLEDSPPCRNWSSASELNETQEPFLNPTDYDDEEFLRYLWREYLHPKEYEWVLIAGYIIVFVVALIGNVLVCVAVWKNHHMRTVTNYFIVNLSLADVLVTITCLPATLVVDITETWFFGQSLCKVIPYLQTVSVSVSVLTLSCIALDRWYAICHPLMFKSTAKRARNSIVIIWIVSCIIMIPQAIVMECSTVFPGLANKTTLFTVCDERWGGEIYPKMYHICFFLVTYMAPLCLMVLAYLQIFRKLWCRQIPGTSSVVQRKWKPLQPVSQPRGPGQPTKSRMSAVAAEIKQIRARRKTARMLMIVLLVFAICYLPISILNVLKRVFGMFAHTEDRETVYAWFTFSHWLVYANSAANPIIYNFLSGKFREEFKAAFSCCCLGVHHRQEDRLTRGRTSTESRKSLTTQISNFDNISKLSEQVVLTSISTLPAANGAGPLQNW

By IC50 is commonly meant the concentration at which inhibition is half-maximal. Regarding `C[C@@H]1CC[C@@H](Oc2nccn3nccc23)CN1C(=O)c1nccnc1-c1ccccn1` [Example 78, ((2R,5R)-2-methyl-5-(pyrazolo[1,5-α]pyrazin-4-yloxy)piperidin-1-yl)(3-(pyridin-2-yl)pyrazin-2-yl)methanone], the IC50 is 59.1 nM. `C[C@@H]1CC[C@@H](Oc2nccn3c(C#N)cnc23)CN1C(=O)c1ccccc1-n1nccn1` [Example 35, 8-(((3R,6R)-1-(2-(2H-1,2,3-triazol-2-yl)benzoyl)-6-methylpiperidin-3-yl)oxy)imidazo[1,2-a]pyrazine-3-carbonitrile]: the IC50 turned out to be 73.7 nM.

Turning to `C[C@@H]1CC[C@@H](Oc2nccn3c(C(F)(F)F)cnc23)CN1C(=O)c1ccsc1-n1nccn1` [Example 58, (2-(2H-1,2,3-triazol-2-yl)thiophen-3-yl)((2R,5R)-2-methyl-5-((3-(trifluoromethyl)imidazo[1,2-a]pyrazin-8-yl)oxy)piperidin-1-yl)methanone], the IC50 was 20.4 nM. The result for `CC(O)c1cnc2c(O[C@@H]3CC[C@@H](C)N(C(=O)c4ccccc4-n4nccn4)C3)nccn12` (stereo partly drawn) [Example 68, (2-(2H-1,2,3-triazol-2-yl)phenyl)((2R,5R)-5-((3-(1-hydroxyethyl)imidazo[1,2-a]pyrazin-8-yl)oxy)-2-methylpiperidin-1-yl)methanone] reads 115 nM; that for `CC(C)c1cn2ccnc(O[C@@H]3CC[C@@H](C)N(C(=O)c4ccccc4-n4nccn4)C3)c2n1` [Example 20, (2-(2H-1,2,3-triazol-2-yl)phenyl)((2R,5R)-5-((2-isopropylimidazo[1,2-a]pyrazin-8-yl)oxy)-2-methylpiperidin-1-yl)methanone], 49 nM; that for `C[C@@H]1CC[C@@H](Oc2ccnc3ocnc23)CN1C(=O)c1ccccc1-n1nccn1` [Example 91, (2-(2H-1,2,3-triazol-2-yl)phenyl)((2R,5R)-2-methyl-5-(oxazolo[5,4-b]pyridin-7-yloxy)piperidin-1-yl)methanone], 16.3 nM.

As for `CC(C)Oc1ccccc1C(=O)N1C[C@H](Oc2nccn3nccc23)CC[C@H]1C` [Example 84, (2-isopropoxyphenyl)((2R,5R)-2-methyl-5-(pyrazolo[1,5-α]pyrazin-4-yloxy)piperidin-1-yl)methanone], the IC50 stood at 43.5 nM.

Regarding `Cc1cn2ccnc(O[C@@H]3CC[C@@H](C)N(C(=O)c4cscc4-c4ncccn4)C3)c2n1` [Example 13, ((2R,5R)-2-methyl-5-((2-methylimidazo[1,2-a]pyrazin-8-yl)oxy)piperidin-1-yl)(4-(pyrimidin-2-yl)thiophen-3-yl)methanone], the IC50 came to 63.7 nM. In the case of `C[C@@H]1CC[C@@H](Oc2nccn3cc(C#N)nc23)CN1C(=O)c1ccccc1-n1nccn1` [Example 24, 8-(((3R,6R)-1-(2-(2H-1,2,3-triazol-2-yl)benzoyl)-6-methylpiperidin-3-yl)oxy)imidazo[1,2-a]pyrazine-2-carbonitrile] it was 88.2 nM.

With `C[C@@H]1CC[C@@H](Nc2nccn3cc(C(F)(F)F)nc23)CN1C(=O)c1ccccc1-n1nccn1` [Example 22, (2-(2H-1,2,3-triazol-2-yl)phenyl)((2R,5R)-2-methyl-5-((2-(trifluoromethyl)imidazo[1,2-a]pyrazin-8-yl)amino)piperidin-1-yl)methanone], the IC50 is 45.4 nM. The result for `C[C@@H]1CC[C@@H](Oc2nccn3c(C(F)F)cnc23)CN1C(=O)c1cscc1-n1nccn1` [Example 41, (4-(2H-1,2,3-triazol-2-yl)thiophen-3-yl)((2R,5R)-5-((3-(difluoromethyl)imidazo[1,2-α]pyrazin-8-yl)oxy)-2-methylpiperidin-1-yl)methanone] reads 45.7 nM. In the case of `CCOc1ccccc1C(=O)N1C[C@H](Oc2nccn3nccc23)CC[C@H]1C` [Example 81, (2-ethoxyphenyl)((2R,5R)-2-methyl-5-(pyrazolo[1,5-α]pyrazin-4-yloxy)piperidin-1-yl)methanone] it was 51.9 nM. In the case of `Cc1cn2ccnc(O[C@@H]3CC[C@@H](C)N(C(=O)c4cccnc4OCC(F)F)C3)c2n1` [Example 15, (2-(2,2-difluoroethoxy)pyridin-3-yl)((2R,5R)-2-methyl-5-((2-methylimidazo[1,2-a]pyrazin-8-yl)oxy)piperidin-1-yl)methanone] it was 41.7 nM; in that of `Cc1cn2ccnc(O[C@@H]3CC[C@@H](C)N(C(=O)c4cccnc4-c4ccccc4)C3)c2n1` [Example 17, ((2R,5R)-2-methyl-5-((2-methylimidazo [1,2-α]pyrazin-8-yl)oxy)piperidin-1-yl) (2-phenylpyridin-3-yl)methanone], 68.4 nM; in that of `C[C@@H]1CC[C@@H](Oc2nccn3nccc23)CN1C(=O)c1ccc(F)cc1-n1nccn1` [Example 73, (4-fluoro-2-(2H-1,2,3-triazol-2-yl)phenyl)((2R,5R)-2-methyl-5-(pyrazolo[1,5-α]pyrazin-4-yloxy)piperidin-1-yl)methanone], 14 nM. Regarding `Cc1cn2ccnc(O[C@@H]3CC[C@@H](C)N(C(=O)c4ccsc4-n4nccn4)C3)c2n1` [Example 7, (2-(2H-1,2,3-triazol-2-yl)thiophen-3-yl)((2R,5R)-2-methyl-5-((2-methylimidazo[1,2-a]pyrazin-8-yl)oxy)piperidin-1-yl)methanone], the IC50 is 27.4 nM. `C[C@@H]1CC[C@@H](Oc2nccn3c(C(F)F)cnc23)CN1C(=O)c1ccccc1-n1nccn1` [Example 38, (2-(2H-1,2,3-triazol-2-yl)phenyl)((2R,5R)-5-((3-(difluoromethyl)imidazo[1,2-a]pyrazin-8-yl)oxy)-2-methylpiperidin-1-yl)methanone]: the IC50 amounted to 17.6 nM. The result for `C[C@@H]1CC[C@@H](Oc2nccn3c(C(F)(F)F)cnc23)CN1C(=O)c1ncccc1-c1ccccc1` [Example 62, ((2R,5R)-2-methyl-5-((3-(trifluoromethyl)imidazo [1,2-α]pyrazin-8-yl)oxy)piperidin-1-yl)(3-phenylpyridin-2-yl)methanone] reads 46.7 nM; that for `C[C@@H]1CC[C@@H](Oc2nccn3c(C(F)F)cnc23)CN1C(=O)c1nccnc1-n1cccn1` [Example 46, (3-(1H-pyrazol-1-yl)pyrazin-2-yl)((2R,5R)-5-((3-(difluoromethyl)imidazo[1,2-α]pyrazin-8-yl)oxy)-2-methylpiperidin-1-yl)methanone], 61.9 nM. In the case of `C[C@@H]1CC[C@@H](Oc2nccn3c(C(F)F)cnc23)CN1C(=O)c1ccccc1-c1ncccn1` [Example 54, ((2R,5R)-5-((3-(difluoromethyl)imidazo[1,2-a]pyrazin-8-yl)oxy)-2-methylpiperidin-1-yl)(2-(pyrimidin-2-yl)phenyl)methanone] it was 24.1 nM; in that of `Cc1ncc2c(O[C@@H]3CC[C@@H](C)N(C(=O)c4ccccc4-n4nccn4)C3)nccn12` [Example 103, (2-(2H-1,2,3-triazol-2-yl)phenyl)((2R,5R)-2-methyl-5-((3-methylimidazo[1,5-a]pyrazin-8-yl)oxy)piperidin-1-yl)methanone], 23.5 nM; in that of `C[C@@H]1CC[C@@H](Oc2nccn3nccc23)CN1C(=O)c1cscc1-c1ncccn1` [Example 74, ((2R,5R)-2-methyl-5-(pyrazolo[1,5-α]pyrazin-4-yloxy)piperidin-1-yl)(4-(pyrimidin-2-yl)thiophen-3-yl) methanone], 34.4 nM.
